Measurements published in ChEMBL document CHEMBL5442168, “ASAP - In vitro liver microsomal stability” (2024).
“And” between values parts separate entries of the source, which are not always exact repeats. Identical values can stand only once.

Assays:
[1] = (§1) Human liver microsomal stability of compound in microsomal protein, PBS buffer pH 7.4, NADPH, glucose-6-phosphate and glucose-6-phosphate dehydrogenase media. Aliquotes were taken at 5 time points and after stopping the reaction, supernatants were analyzed using HPLC coupled with a tandem mass spectrometer. The elimination constant, half-life, and intrinsic clearance are determined as results using linear regression analysis. The assay has been performed by Enamine biological services, Bienta Ltd.The protocol is publicly available: dx.doi.org/10.17504/protocols.io.5qpvokdb9l4o/v1; type: ADME, microsomes, Microsome; conditions: for half-life / microsomal CLint: liver microsomes; for CLint / Remaining / Remaining (without cofactor) / T1/2: microsomes
[2] = as §1, with “Mouse” for “Human”; type: ADME, microsomes, Microsome; conditions: for half-life / microsomal CLint: liver microsomes; for CLint / Remaining / Remaining (without cofactor) / T1/2: microsomes
Throughout, for Remaining (without cofactor): time not given here.
Throughout, for Remaining: time not given here.

| half-life [1] [min] | microsomal CLint [1] [µL/min/mg] | CLint [1] | Remaining [1] | Remaining (without cofactor) [1] | T1/2 [1] | half-life [2] [min] | microsomal CLint [2] [µL/min/mg] | CLint [2] | Remaining [2] | Remaining (without cofactor) [2] | T1/2 [2] | SMILES |
| --- | --- | --- | --- | --- | --- | --- | --- | --- | --- | --- | --- | --- |
| 46 | 36 | 42 µL/min/mg | 55% and 49% | 96% and 107% | 39.8 min | 53.1 | 31 | 30 µL/min/mg | 60% and 59% | 90% and 109% | 56.2 min | CC(C)(C)[C@@H](Nc1ncnc2[nH]c(-c3cnn(CC(N)=O)c3)cc12)c1ccc2c(n1)OCCO2 |
| 19.6 | 85 | – | 22% | 109% | – | 8.4 | 199 | – | 4% | 100% | – | Cn1ncc(-c2cc3c(N[C@@H](c4ccc5c(c4)OCCO5)C(C)(C)C)ncnc3[nH]2)c1C#N |
| – | – | – | – | 90% and 111% | – | – | – | – | 2% and 0% | 101% and 102% | – | CC(C)[C@@H](Nc1ncnc2[nH]cc(C(=O)NC3CC3)c12)c1ccc2c(c1)S(=O)(=O)CCC2 |
| 280 | 6 | – | 88% | 86% | – | 454 | 4 | – | 95% | 105% | – | O=C(Nc1cccc2c(C(=O)N[C@@H]3c4ccccc4C[C@@H]3C(=O)O)c[nH]c12)NC1CC1 |
| 7 | 240 | – | 2% | 115% | – | 42.6 | 39 | – | 53% | 98% | – | CC(C)[C@H](Nc1ncnc2[nH]c(-c3cnn(CC(N)=O)c3)cc12)c1ccc2c(c1)S(=O)(=O)CCC2 |
| 16.9 | 99 | – | 19% | 108% | – | 27.1 | 62 | – | 36% | 106% | – | CC(C)[C@@H](Nc1ncnc2[nH]c(-c3cnn(CCC(N)=O)c3)cc12)c1ccc2c(c1)OCCO2 |
| 120 | 14 | 18 µL/min/mg | 77% | 95% | 91.8 min | 145 | 12 | 9 µL/min/mg | 83% and 90% | 104% and 102% | 182.3 min | CC(C)[C@@H](Nc1ncnc2[nH]c(-c3cnn(CC(N)=O)c3)cc12)c1ccc2c(n1)OCCO2 |
| 6.6 | 251 | – | 2% | 116% | – | 4.3 | 390 | – | 1% | 103% | – | Cc1nn(C)cc1-c1cc2c(N[C@@H](c3ccc4c(c3)S(=O)(=O)CCC4)C(C)C)ncnc2[nH]1 |
| 320 | 5 | – | 90% | 112% | – | 39.5 | 42 | – | 50% | 102% | – | CC(C)[C@H](Nc1ncnc2[nH]cc(C(=O)NC3CC3)c12)c1ccc2c(c1)S(=O)(=O)CCC2 |
| – | – | 141 µL/min/mg and 405 µL/min/mg | 10% and 0% | 102% and 105% | 11.9 min and 4.1 min | 10.8 | 155 | 140 µL/min/mg | 7% and 10% | 102% | 11.9 min | CC(C)[C@@H](Nc1ncnc2[nH]c(-c3cnn(C)c3)cc12)c1ccc2c(c1)S(=O)(=O)CCC2 |
| 799 | 2 | – | 92% | 103% | – | 2880 | 1 | – | 99% | 92% | – | COc1ccc([C@@H](NC(=O)c2[nH]cnc3nccc2-3)C(C)c2nnn[nH]2)cc1 (stereo partly drawn) |
| 21.2 | 79 | – | 27% | 113% | – | 19 | 88 | – | 20% | 95% | – | CNC(=O)c1c[nH]c2ncnc(N[C@@H](c3ccc4c(c3)OCCO4)C(C)C)c12 |
| 6.5 | 258 | – | 1% | 94% | – | 2.2 | 770 | – | 0% | 99% | – | CNC(=O)c1c[nH]c2ncnc(N[C@H](c3ccc4c(c3)S(=O)(=O)CCC4)C(C)C)c12 |
| 12.8 | 131 | 108 µL/min/mg | 11% and 17% | 104% and 94% | 15.4 min | 8.7 | 192 | 113 µL/min/mg | – | 92% and 108% | 14.7 min | CNC(=O)c1c[nH]c2ncnc(N[C@@H](c3ccc4c(c3)S(=O)(=O)CCC4)C(C)C)c12 |
| 3.7 | 455 | – | 0% | 93% | – | 1.9 | 882 | – | 1% | 101% | – | CNC(=O)c1cccc(-c2cc3c(N[C@@H](c4ccc5c(c4)S(=O)(=O)CCC5)C(C)C)ncnc3[nH]2)c1 |
| 18.1 | 92 | – | 23% | 101% | – | 15 | 111 | – | 16% | 96% | – | CNC(=O)Cn1cc(-c2cc3c(N[C@H](c4ccc5c(c4)S(=O)(=O)CCC5)C(C)C)ncnc3[nH]2)cn1 |
| 27.8 | 60 | – | 38% | 103% | – | 5.2 | 321 | – | 1% | 83% | – | COc1ccc2c(c1)CCN(c1ncnc3[nH]ccc13)[C@H]2C(C)C |
| – | – | – | – | 91% and 108% and 85% | – | 8 | 209 | 188 µL/min/mg and 226 µL/min/mg | 4% and 5% and 2% | 101% and 106% and 94% | 8.9 min and 7.4 min | Cn1ncc(-c2cc3c(N[C@@H](c4ccc5c(n4)OCCO5)C(C)(C)C)ncnc3[nH]2)c1C#N |
| – | – | 94 µL/min/mg and 237 µL/min/mg | – | 96% and 89% | 17.7 min and 7 min | 21.6 | 77 | 44 µL/min/mg | 26% and 48% | 103% and 90% | 37.8 min | CNC(=O)Cn1cc(-c2cc3c(N[C@@H](c4ccc5c(c4)S(=O)(=O)CCC5)C(C)C)ncnc3[nH]2)cn1 |
| 14.4 | 116 | 115 µL/min/mg | 15% | 95% and 103% | 14.5 min | 27.4 | 61 | 96 µL/min/mg | 37% and 20% | 109% and 111% | 17.4 min | CC(C)[C@@H](Nc1ncnc2[nH]c(-c3cnn(CC(N)=O)c3)cc12)c1ccc2c(c1)S(=O)(=O)CCC2 |
| 24.8 | 67 | – | 32% | 100% | – | 34.6 | 48 | – | 47% | 94% | – | CCNC(=O)c1cc2c(N[C@H](c3ccc4c(c3)OCCO4)C(C)C)ncnc2[nH]1 |
| 14 | 119 | – | 14% | 92% | – | 35.7 | 47 | – | 46% | 90% | – | CNC(=O)Cn1cc(-c2cc3c(N[C@@H](c4ccc5c(c4)OCCO5)C(C)C)ncnc3[nH]2)cn1 |
| – | – | 99 µL/min/mg and 238 µL/min/mg | – | 103% and 90% | 16.9 min and 7 min | 41.1 | 41 | 42 µL/min/mg | 54% and 49% | 87% and 98% | 40 min | CC(C)[C@@H](Nc1ncnc2[nH]c(-c3cnn(CC(N)=O)c3)cc12)c1ccc2c(c1)OCCO2 |
| 9.9 | 169 | – | 7% | 95% | – | 6.5 | 255 | – | 1% | 98% | – | CC(C)[C@H](Nc1ncnc2[nH]c(-c3cnn(C)c3)cc12)c1ccc2c(c1)S(=O)(=O)CCC2 |
| 11.7 | 143 | – | 9% | 110% | – | 11.7 | 142 | – | 9% | 98% | – | CC(C)[C@@H](Nc1ncnc2[nH]cc(C(N)=O)c12)c1ccc2c(c1)OCCO2 |

| SMILES | half-life [1] [min] | microsomal CLint [1] [µL/min/mg] | CLint [1] | Remaining [1] | Remaining (without cofactor) [1] | T1/2 [1] | half-life [2] [min] | microsomal CLint [2] [µL/min/mg] | CLint [2] | Remaining [2] | Remaining (without cofactor) [2] | T1/2 [2] |
| --- | --- | --- | --- | --- | --- | --- | --- | --- | --- | --- | --- | --- |
| CC(C)[C@@H](Nc1ncnc2[nH]c(-c3cnn(C)c3C#N)cc12)c1ccc2c(n1)OCCO2 | – | – | – | – | 104% and 98% and 93% | – | – | – | 169 µL/min/mg and 139 µL/min/mg and 371 µL/min/mg | 6% and 10% and 1% | 110% and 101% and 99% | 9.9 min and 12 min and 4.5 min |
